From patent US4549988A, “3H-2-Benzazepines” (Hoffmann-La Roche Inc., priority 1983, dated 1985)

Assays:
[1] = Toxicity, 24 hr. LD50 (PO); conditions: in vivo
[2] = system: metrazol convulsive seizures; test: antimetrazol test (oral compound, protection from metrazol-induced convulsive seizures); assay type: in vivo; conditions: Mus musculus, 1 h, mice, one hour before metrazol s.c., Miller-Tainter method
Protocol: Periodically a metrazol standardization test precedes the assay to ascertain the quantity of metrazol, administered to control mice, sufficient to induce convulsive seizures in all animals. This is usually 125 mg/kg. In the antimetrazol test, a compound is administered orally to groups of four mice at various dose levels. One hour later, metrazol (at a dose level previously determined in the standardization test) is administered subcutaneously and the animals are observed for protection from convulsive seizures. Results are recorded as the number of animals protected against convulsions. The dose at which 50% of the animals are protected from convulsive seizures is expressed as the ED50. On active compounds, 8 animals employed per dose group. The ED50 is calculated by the Miller-Tainter method (Proc.Soc.Exp.Med. and Bio., 57, 261, 1944).

^3 H--Imipramine Binding = test: imipramine binding assay (3H-imipramine, rat cortex homogenate); parameters: species or system Sprague Dawley male rats; conditions: 15 minutes at room temperature, nonspecific binding by 10^-3 M imipramine
Protocol: IMIPRAMINE BINDING ASSAY METHOD
Sprague Dawley male rats (180 g) are decapitated and the brains immediately placed on ice. Cortex is dissected and homogenized in 8 volumes of 0.25M sucrose. Homogenate is centrifuged at 2900 rpm (1000×g) in a Sorvall RCLB centrifuge with a SM 24 head. Supernatant is decanted and polytronized for 60 seconds using a Brinkmann Polytron (Model PT-10) at setting 5. Dilutions of imipramine hydrochloride are made in ehtanol (1:5). Each assay sample contains: 1.8 ml of Krebs Ringer Buffer, 20 μl of imipramine or other drugs and 20 μl of ^3 H-imipramine ([…]). The ^3 H-imipramine is from New England Nuclear #NET 576, 20-40 curies/millimole. Imipramine (10^-3 M) is used to define nonspecific binding. Incubation is for 15 minutes at room temperature. Samples are then put in ice bath for 5 minutes. Each sample is filtered on a 45-place manifold (E. Sandbek Co., Airville, Pa.). Filter is a Whatman GF/B. Filters are placed in 13 ml of aquasol and shaken for 2 hours, then the radioactivity trapped on the filter is determined by liquid scintillation spectrometry.

Row | SMILES | LD50 at 24 h [1] [mg/kg] | ED50 [2] [mg/kg] | IC50 (^3 H--Imipramine Binding) [µM]
1 | [O-][N+]1=C(c2ccccc2)c2cc(Cl)ccc2C=CC1 [8-Chloro-1-phenyl-3H-2-benzazepine-2-oxide] | > 1000 | 5.2 | –
2 | Cl.Cl.NCC#CC1=CCN=C(c2ccccc2F)c2cc(Cl)ccc21 [8-Chloro-5-(1-amino-2-propyn-3-yl)-1-(2-fluorophenyl)-3H-2-benzazepine dihydrochloride] | 500 | 3 | 20
3 | Cl.Cl.NCC#CC1=CCN=C(c2ccccc2)c2cc(Cl)ccc21 [8-Chloro-5-(1-amino-2-propyn-3-yl)-1-phenyl-3H-2-benzazepine dihydrochloride] | 500 | 32 | 11
4 | CN(C)CC#CC1=CCN=C(c2ccccc2F)c2cc(Cl)ccc21.Cl.Cl [8-Chloro-5-(1-dimethylamino-2-propyn-3-yl)-1-(2-fluorophenyl)-3H-2-benzazepine dihydrochloride] | > 1000 | 19 | –
5 | CN(C)CCCN1c2ccccc2CCc2ccccc21 [Imipramine, reference compound] | – | – | 7.1
